This note sets out measurements from patent publication US7183320B2, “Benzoylsulfonamides and sulfonylbenzamidines for use as antitumour agents” (Eli Lilly and Company, priority 2002, dated 2007).

Each structure is given as a SMILES string.

The subject of the assay is HCT116 colon carcinoma cells. Kind of assay: HCT116 colon carcinoma cell growth inhibition (WST-1, 72 hr). Type of assay: cell-based, human. The procedure:
HCT116 Colon Carcinoma Cell Growth Inhibition
HCT116 colon carcinoma cells were grown monolayer culture in RPMI 1640 medium supplemented with 10% fetal bovine serum and 1% penicillin-streptomycin (GibcoBRL, Grand Island, N.Y.). HCT116 cells in exponential growth phase were exposed to various concentrations of the test compounds at 37° C. for 72 hr in 5% carbon dioxide/air. After exposure to the agent, the cells were washed with 0.9% phosphate buffered saline. Growth inhibition was determined using WST-1 cell proliferation reagent as described above. The results are expressed as the growth fraction of treated cells compared with control cultures. Representative compounds of the present invention were tested for efficacy against the human colon HCT116 tumor cells.
(In general: Formazan colour is commonly taken as a measure of viable cells.)

The mark [1] stands for this setting: Homo sapiens, HCT-116, 72 hr exposure.

A word on the IC50: it is the midpoint of a concentration-inhibition curve. Higher therefore signals a need for much substance. In turn, `Cc1cc(Cl)ccc1C(=O)NS(=O)(=O)c1cccc(Br)c1` [Example 90, N-[2-methyl-4-chlorobenzoyl]-3-bromophenylsulfonamide] registered an IC50 under setting [1] of 4.5 µM.

`COc1cccc(S(=O)(=O)NC(=O)c2ccc(Cl)cc2Cl)c1` [Example 80, N-[2,4-dichlorobenzoyl]-3-methoxyphenyl-sulfonamide] came in with an IC50 under setting [1] of 12.3 µM. The same measure, in the same setting: with `O=C(NS(=O)(=O)c1ccc(F)cc1)c1ccc([N+](=O)[O-])cc1Cl` [Example 101, N-[2-chloro-4-nitrobenzoyl]-4-fluoro-phenylsulfonamide] the figure was 12.4 µM; with `O=C(NS(=O)(=O)c1cccc(Br)c1)c1ccc(Cl)cc1Cl` [Example 1, N-[2,4-dichlorobenzoyl]-3-bromophenylsulfonamide], 4.2 µM. The same measure, in the same setting: with `O=C(NS(=O)(=O)c1ccc([N+](=O)[O-])cc1)c1ccc(Cl)cc1Cl` [Example 103, N-[2,4-dichlorobenzoyl]-4-nitrophenylsulfonamide] the figure was 11.9 µM.

`O=C(NS(=O)(=O)c1ccc(Br)c(Br)c1)c1ccc(Cl)cc1Cl` [Example 24, N-[2,4-dichlorobenzoyl]-3,4-dibromophenylsulfonamide] gave a half-maximal inhibitory concentration (IC50) under setting [1] of 37.1 µM. The same measure, in the same setting: to `Cc1ccc(S(=O)(=O)NC(=O)c2ccc(Cl)cc2C)cc1` [Example 23, N-[2-methyl-4-chlorobenzoyl]-4-methylphenylsulfonamide] belongs 15.9 µM. Take `CN(C)c1ccc(S(=O)(=O)NC(=O)c2ccc(Cl)cc2Cl)cc1` [Example 98, N-[2,4-dichlorobenzoyl]-4-dimethylaminophenyl-sulfonamide]: the IC50 under setting [1] worked out at 13 µM. The compound `CCSc1ccc(S(=O)(=O)NC(=O)c2ccc(Cl)cc2Cl)cc1` [Example 62, N-[2,4-dichlorobenzoyl]-4-ethylthiophenyl-sulfonamide] showed an IC50 under setting [1] of 19.3 µM. This IC50 and that of the compound before are within 1.5-fold of each other. Same read-out and setting: with `Cc1cc(Cl)ccc1C(=O)NS(=O)(=O)c1cccc(C#N)c1` [Example 106, N-[2-methyl-4-chlorobenzoyl]-3-cyanophenylsulfonamide] the figure was 4.6 µM; with `O=C(NS(=O)(=O)c1ccc(Cl)cc1)c1ccc([N+](=O)[O-])cc1Cl` [Example 10, N-[2-chloro-4-nitrobenzoyl]-4-chlorophenylsulfonamide], 12.1 µM.

As for `CSc1ccc(S(=O)(=O)NC(=O)c2ccc(Cl)cc2Cl)cc1` [Example 87, N-[2,4-dichlorobenzoyl]-4-methylthiophenylsulfonamide], the concentration for half-maximal inhibition (IC50) under setting [1] was determined as 5.5 µM. Under setting [1], `COC(=O)c1cc(S(=O)(=O)NC(=O)c2ccc(Br)cc2Br)ccc1OC` [Example 34, N-[2,4-dibromobenzoyl]-3-methoxycarbonyl-4-methoxyphenylsulfonamide] returned an IC50 of 16.5 µM.

`CC(C)c1ccc(S(=O)(=O)NC(=O)c2ccc(C(F)(F)F)cc2C(F)(F)F)cc1` [Example 63, N-[2,4-bis-trifluoromethylbenzoyl]-4-isopropylphenyl-sulfonamide] registered a half-maximal inhibitory concentration (IC50) under setting [1] of 24.7 µM. This IC50 and that of the compound before are within 1.5-fold of each other. In the case of `O=C(NS(=O)(=O)c1ccc(Cl)c(Cl)c1)c1ccc([N+](=O)[O-])cc1Cl` [Example 21, N-[2-chloro-4-nitrobenzoyl]-3,4-dichlorophenyl-sulfonamide], the half-maximal inhibitory concentration (IC50) under setting [1] was determined as 30.4 µM. The IC50 values of the last two compounds are within 1.5-fold of each other. On the same count and under the same terms, to `Cc1cc(Cl)ccc1C(=O)NS(=O)(=O)c1ccc(F)c(F)c1` [Example 57, N-[2-methyl-4-chlorobenzoyl]-3,4-difluorophenyl-sulfonamide] belongs 5 µM. Still for that read-out and setting: to `Cc1cc(Cl)ccc1C(=O)NS(=O)(=O)c1ccc(OC(F)(F)F)cc1` [Example 51, N-[2-methyl-4-chlorobenzoyl]-4-trifluoromethoxy-phenylsulfonamide] belongs 26.7 µM.

In turn, `COC(=O)c1ccc(S(=O)(=O)NC(=O)c2ccc(Cl)cc2Br)cc1` [Example 30, N-[2-bromo-4-chlorobenzoyl]-4-methyoxycarbonyl-phenylsulfonamide] returned an IC50 (72 hr exposure) of 10.1 µM. The compound `O=C(NS(=O)(=O)c1ccc(F)c(F)c1)c1ccc(C(F)(F)F)cc1C(F)(F)F` [Example 53, N-[2,4-bis-trifluoromethylbenzoyl]-3,4-difluorophenyl-sulfonamide] returned a concentration for half-maximal inhibition (IC50) under setting [1] of 11.2 µM. For the compound `O=C(NS(=O)(=O)c1cccc(Cl)c1)c1ccc(Br)cc1Cl` [Example 17, N-[2-chloro-4-bromobenzoyl]-3-chlorophenylsulfonamide], under setting [1], it took 15.8 µM to reach half-maximal inhibition (IC50). This IC50 and that of the compound before are within 1.5-fold of each other. On the same count and under the same terms, with `Cc1ccc(S(=O)(=O)NC(=O)c2ccc(Cl)cc2Cl)cc1` [Example 86, N-[2,4-dichlorobenzoyl]-4-methylphenylsulfonamide] the figure was 1.6 µM; with `Cc1ccc(S(=O)(=O)NC(=O)c2ccc(Cl)cc2Cl)cc1Cl` [Example 89, N-[2,4-dichlorobenzoyl]-3-chloro-4-methylphenylsulfonamide], 4.8 µM. Same read-out and setting: to `COc1ccc(S(=O)(=O)NC(=O)c2ccc(Br)cc2Cl)cc1` [Example 18, N-[2-chloro-4-bromobenzoyl]-4-methoxyphenylsulfonamide] belongs 9.3 µM. The compound `CC(=O)c1cccc(-c2ccc(S(=O)(=O)NC(=O)c3ccc(Cl)cc3Cl)cc2)c1` [Example 109, N-[2,4-dichlorobenzoyl]-4-3′-acetyl-biphenylsulfonamide] displayed a concentration for half-maximal inhibition (IC50) (72 hr exposure) of 25.1 µM. For `Cc1cc(Cl)ccc1C(=O)NS(=O)(=O)c1ccc(F)cc1` [Example 42, N-[2-methyl-4-chlorobenzoyl]-4-fluorophenylsulfonamide], the half-inhibitory concentration (IC50) under setting [1] stood at 3.3 µM.

In turn, `O=C(NS(=O)(=O)c1ccc(-c2ccoc2)cc1)c1ccc(Cl)cc1Cl` [Example 126, N-[2,4-dichlorobenzoyl]-4-fur-3-yl-phenylsulfonamide] returned a 50% inhibitory concentration (IC50) under setting [1] of 18.5 µM. The same measure, in the same setting: with `O=C(NS(=O)(=O)c1ccc(O)cc1)c1ccc(Cl)cc1Cl` [Example 82, N-[2,4-dichlorobenzoyl]-4-hydroxyphenyl-sulfonamide] the figure was 12.4 µM; with `CC(C)(C)c1ccc(S(=O)(=O)NC(=O)c2ccc(Cl)cc2Br)cc1` [Example 33, N-[2-bromo-4-chlorobenzoyl]-4-tert-butylphenylsulfonamide], 7.8 µM; with `COC(=O)c1cc(S(=O)(=O)NC(=O)c2ccc(Cl)cc2Br)ccc1OC` [Example 32, N-[2-bromo-4-chlorobenzoyl]-3-methoxycarbonyl-4-methoxyphenylsulfonamide], 7.8 µM.

In the case of `O=C(NS(=O)(=O)c1ccccc1)c1ccc(Br)cc1Cl` [Example 11, N-[2-chloro-4-bromobenzoyl]-phenylsulfonamide], under setting [1], it took 5.5 µM to reach half-maximal inhibition (IC50). Compound `O=C(NS(=O)(=O)c1ccc(-c2ccco2)cc1)c1ccc(Cl)cc1Cl` [Example 121, N-[2,4-dichloro-benzoyl]-4-furan-2-yl-phenylsulfonamide] showed a 50% inhibitory concentration (IC50) under setting [1] of 24.5 µM.

For `COc1ccccc1-c1ccc(S(=O)(=O)NC(=O)c2ccc(Cl)cc2Cl)cc1` [Example 122, N-[2,4-dichlorobenzoyl]-4-(1-methoxy-phen-2-yl)phenylsulfonamide], half-maximal inhibition (72 hr exposure) (IC50) required 25.8 µM. Under setting [1], `O=C(NS(=O)(=O)c1cccc(C(F)(F)F)c1)c1ccc(Cl)cc1Cl` [Example 25, N-[2,4-dichlorobenzoyl]-3-trifluoromethyl-phenylsulfonamide] returned an IC50 of 9.6 µM. Still for that read-out and setting: with `Cc1cc(Br)ccc1C(=O)NS(=O)(=O)c1ccc(Br)cc1` [Example 100, N-[2-methyl-4-bromobenzoyl]-4-bromophenylsulfonamide] the figure was 9.2 µM. The same measure, in the same setting: to `Cc1cccc(S(=O)(=O)NC(=O)c2ccc(Cl)cc2C)c1` [Example 55, N-[2-methyl-4-chlorobenzoyl]-3-methylphenylsulfonamide] belongs 9.5 µM; to `Cc1cc(Cl)ccc1C(=O)NS(=O)(=O)c1ccc(Cl)c(Cl)c1` [Example 104, N-[2-methyl-4-chlorobenzoyl]-3,4-dichlorophenylsulfonamide], 22.2 µM. On the same count and under the same terms, with `O=C(NS(=O)(=O)c1cccc(F)c1)c1ccc(Cl)cc1Cl` [Example 26, N-[2,4-dichlorobenzoyl]-3-fluorophenylsulfonamide] the figure was 6.1 µM; with `O=C(NS(=O)(=O)c1ccc(Br)cc1)c1ccc(Br)cc1Cl` [Example 14, N-[2-chloro-4-bromobenzoyl]-4-bromophenylsulfonamide], 40 µM; with `O=C(NS(=O)(=O)c1ccc(F)c(Cl)c1)c1ccc(Cl)cc1Cl` [Example 9, N-[2,4-dichlorobenzoyl]-3-chloro-4-fluorophenylsulfonamide], 1.7 µM. On to `COc1ccc(S(=O)(=O)NC(=O)c2ccc(Cl)cc2Cl)cc1` [Example 3, N-[2,4-dichlorobenzoyl]-4-methoxyphenylsulfonamide], for which half-maximal inhibition under setting [1] (IC50) required 2.5 µM. The same measure, in the same setting: to `N=C(NS(=O)(=O)c1ccc(F)c(Cl)c1)c1ccc(F)c(Cl)c1` [Example 116, N-[3-chloro-4-fluorophenylsulfonyl]-3-chloro-4-fluorobenzamidine] belongs 5.9 µM. On the same count and under the same terms, with `O=C(NS(=O)(=O)c1ccc(OC(F)(F)F)cc1)c1ccc(Cl)cc1Cl` [Example 96, N-[2,4-dichlorobenzoyl]-4-trifluoromethoxyphenyl-sulfonamide] the figure was 34.7 µM; with `O=C(NS(=O)(=O)c1ccc(Cl)cc1)c1ccc(C(F)(F)F)cc1C(F)(F)F` [Example 99, N-[2,4-bis-trifluoromethylbenzoyl]-4-chlorophenylsulfonamide], 33.5 µM. Compound `CCc1ccc(S(=O)(=O)NC(=O)c2ccc(Cl)cc2C)cc1` [Example 70, N-[2-methyl-4-chlorobenzoyl]-4-ethylphenylsulfonamide] gave an IC50 under setting [1] of 16.9 µM. Same read-out and setting: with `O=C(NS(=O)(=O)c1ccc(Cl)cc1)c1ccc(Br)cc1Cl` [Example 112, N-[2-chloro-4-bromobenzoyl]-4-chlorophenylsulfonamide] the figure was 2.8 µM. The same measure, in the same setting: to `O=C(NS(=O)(=O)c1ccc(Br)cc1)c1ccc(C(F)(F)F)cc1C(F)(F)F` [Example 49, N-[2,4-bis-trifluoromethylbenzoyl]-4-bromophenylsulfonamide] belongs 14.7 µM.
